We go through one molecule from patent US12383527B2, “Methods for treating triple negative breast cancer using salvianolic acid B” (HOWARD UNIVERSITY, priority 2018, dated 2025).

Data set [1] relates to Bcl-xL. Kind of data set: Immunohistochemical staining of Bcl-xL in MDA tumor xenografts. The data set is classed as in vivo, athymic nude mice. Conditions: Sal-B 80 mg/kg three times per week; untreated tumors 11.8±3.0; P<0.05. As for the experimental part: (§1) Human tumor xenografts in athymic nude mice. […] The animal protocol was approved by the Howard University Animal Care and Use Committee. Four-week-old female athymic nude mice (Nu/Nu) were obtained from Harlan Sprague Dawley (Indianapolis, IN). All mice were provided the Harlan Teklad #2018 Global 18% protein rodent diet and water ad libitum. Mice were housed in temperature-controlled rooms (74±2° F.) with a 12-hour alternating light-dark cycle. MDA cells (3×10^6/50 μL/spot) were subcutaneously injected into the both sides of lower back of mice using a 27-gauge needle. […]
Immunohistochemical staining was performed as described previously (Hao Y, et al., “Enforced expression of miR-101 inhibits prostate cancer cell growth by modulating the COX-2 pathway in vivo,” Cancer Prev Res (Phila), 2011; 4: 1073-1083). […] For the quantification, ten high-magnification (40×) fields were randomly selected from each slide of tumors and the positive cells were counted. The protein expression was expressed as the average number of positive cells per high magnification field.

A short description of data set [2]: Body weight and side effects of treated mice. Conditions: applicant's previous studies. The data set is classed as in vivo. As for the experimental part: (§2) Human tumor xenografts in athymic nude mice. […] The animal protocol was approved by the Howard University Animal Care and Use Committee. Four-week-old female athymic nude mice (Nu/Nu) were obtained from Harlan Sprague Dawley (Indianapolis, IN). All mice were provided the Harlan Teklad #2018 Global 18% protein rodent diet and water ad libitum. Mice were housed in temperature-controlled rooms (74±2° F.) with a 12-hour alternating light-dark cycle. MDA cells (3×10^6/50 μL/spot) were subcutaneously injected into the both sides of lower back of mice using a 27-gauge needle. On day 10 after cell implantation, the mice with tumors (˜5 mm in diameter) were randomly divided into Sal-B treated, doxorubicin treated, and untreated groups (five mice per group), and were administrated Sal-B (80 mg/kg, three times per week), doxorubicin (4 mg/kg, every four weeks) and 0.9% saline (50 μl, three times per week), respectively, by intraperitoneal injection for a total of 37 days. […] All mice were sacrificed on day 37.

In data set [3] the test system is ceramides. Description: Ceramide levels in MDA cells by flow cytometry. Format: cell-based, human. The note with it: Sal-B 50 μM, 24 hours. As for the experimental part: Ceramide levels were further analyzed with flow cytometry, according to the method described above, through comparison of Sal-B treated and untreated MDA cells. MDA cells were treated with 50 μM and 100 μM of Sal-B, respectively, for 24 hours and ceramide levels were then analyzed by flow cytometry.
Similarly, immunohistochemistry was carried out, as generally described above, to evaluate the expression of ceramides in MDA tumor xenografts (FIG. 9, panel C). The fixed cells were sequentially incubated with anti-ceramide primary antibody (1:100) for 2 hours and PE-labeled secondary antibody (1:200) for 30 minutes, and the ceramide positive cells were counted (FIG. 9, panel B).

Data set [4] concerns MDA tumor xenografts. Description: TUNEL assay of apoptotic cells in MDA tumor xenografts. Format: in vivo, athymic nude mice. Conditions: Sal-B 80 mg/kg three times per week; untreated tumors 3.1±1.8; P<0.05. As for the experimental part: as §1
Apoptotic cells in MDA tumor xenografts were also analyzed by a terminal deoxynucleotidyl transferase-mediated dUTP nick end labeling (TUNEL) assay using the TdT-FragEL DNA Fragmentation Detection Kit (EMD Millipore, Burlington, MA) as previously described (Li H, et al., “Cellular uptake and anticancer activity of salvianolic acid B phospholipid complex loaded nanoparticles in head and neck cancer and precancer cells,” Colloids Surf B Biointerfaces. 2016; 147: 65-72). […]

For data set [5], the system named is MDA tumor xenografts. Description: Human tumor xenografts in athymic nude mice, tumor weight. Conditions: Sal-B 80 mg/kg three times per week, intraperitoneal; day 37; mean±SD; untreated control 0.81±0.12 g. The data set is classed as in vivo. The protocol: as §2
Data set [6] deals with GM3 synthase. Kind of data set: Western blot of GM3 synthase expression in MDA and MCF-7 cells. The data set is classed as cell-based, human. The protocol:
(§3) The immunohistochemical results were consistent with those from Western blotting (FIG. 7, panel A). Western blot analysis was used to determine the expression of apoptosis-related proteins Bcl-XL, survivin, caspase-3 and caspase-8 (FIG. 7, panel A). β-actin was used as an internal control for Western blotting. The MCD-7 and MDA cells were treated with Sal-B (50 μM and 100 μM) and doxorubicin (0.1 μM and 1 μM), respectively, for 24 hours. Proteins were extracted from the cells with RIPA lysis buffer (Santa Cruz Biotechnology, Santa Cruz, CA) and the protein concentrations were quantified with Bio-Rad protein quantification kit. Whole-cell proteins were separated on 8% SDS-polyacrylamide gel, transferred to the polyvinylidene difluoride membrane (Bio-Rad), and then probed with the indicated primary antibodies overnight at 4° C. Washed blots were then incubated with horseradish peroxidase-conjugated anti-rabbit, anti-mouse, or anti-goat antibody (Santa Cruz Biotechnology), respectively, for one hour at room temperature. Blots were developed and visualized with ECL detection system (Bio-Rad).
To understand the mechanism underlying increased ceramide accumulation, the expression levels of GCS and GM3 synthase were measured by Western blot analysis in MDA and MCF-7 cells treated by various concentrations of Sal-B (FIG. 8). […]

For data set [7], the system named is MDA-MB-231 cells. Kind of data set: Colony formation assay. Format: cell-based, human. The note with it: colonies grown 10 days. As for the experimental part:
Colony formation assay. The inhibitory effect of Sal-B was further confirmed by colony formation assay. The colony formation assay was performed as described previously (Hao Y, et al., “Enforced expression of miR-101 inhibits prostate cancer cell growth by modulating the COX-2 pathway in vivo,” Cancer Prev Res (Phila). 2011; 4: 1073-1083). Briefly, MDA cells were seeded at a density of 300 cells per well in 6-well plates, cultured overnight, and then treated with Sal-B at different concentrations (1, 10, 20, 50, and 100 μM) for 24 hours. Following treatment, the old medium containing Sal-B was replaced with fresh drug-free media and the cells were allowed to grow for 10 days to permit colony formation from viable clonogenic cells. Colonies were stained with 0.1% trypan blue in 50% ethanol and were counted manually under microscopy with a grid printed on a transparent plastic sheet to keep track of colonies counted. The colonies containing more than 50 cells were considered to represent a viable clonogenic cell. The experiment was completed in triplicate for each treatment.

Data set [8] deals with Bcl-xL. Description: Western blot of Bcl-xL expression in MDA and MCF-7 cells. Format: cell-based, human. The note with it: Sal-B 50 μM and 100 μM, 24 hours. The protocol:
as §3

The test system of data set [9] is ceramides. Kind of data set: Immunohistochemistry of ceramides in MDA tumor xenografts. Format: in vivo, athymic nude mice. Conditions: Sal-B 80 mg/kg three times per week; untreated control 2.3±0.7; P<0.05. The protocol:
as §1
Immunohistochemical staining was performed as described previously (Hao Y, et al., “Enforced expression of miR-101 inhibits prostate cancer cell growth by modulating the COX-2 pathway in vivo,” Cancer Prev Res (Phila), 2011; 4: 1073-1083). […] For the quantification, ten high-magnification (40×) fields were randomly selected from each slide of tumors and the positive cells were counted. The protein expression was expressed as the average number of positive cells per high magnification field. […]

As for `O=C(/C=C/c1ccc(O)c2c1[C@H](C(=O)O[C@H](Cc1ccc(O)c(O)c1)C(=O)O)[C@@H](c1ccc(O)c(O)c1)O2)O[C@H](Cc1ccc(O)c(O)c1)C(=O)O` [Sal-B, Salvianolic acid B], in data set [1], the “expression of Bcl-xL in tumors” value is on record as 1.3±0.4 positive cells per high magnif. In [2] (Sal-B 80 mg/kg three times per week), the side effects entry was “no obvious side effects”. For the same molecule, the “side effects at higher dosage” value in data set [2] (Sal-B dosage higher than 80 mg/kg three times per week) is given as “weight loss in some mice”. In addition, the “ceramide level by flow cytometry” value in data set [3] is “sufficient to enhance the ceramide level”. For the same molecule, in [4], the “number of apoptotic cells (TUNEL)” value turned out to be 12.2±3.2. This molecule returned an average tumor weight in [5] of 0.26 ± 0.06 g. In addition, the “expression of GM3 synthase (normalized to β-actin)” value in data set [6] (MCF-7 cells, Sal-B 100 μM) is given as “significantly diminished”; in data set [6] (MDA cells, Sal-B at both 50 μM and 100 μM) it was “significantly diminished”. In data set [7] (Sal-B 1 μM for 24 hours), the “colony formation capability relative to control cells” value is reported as “approximately 69%”. In addition, in data set [7] (Sal-B 100 μM for 24 hours), the colony formation capability result was “complete inhibition”. Besides, the Bcl-xL protein expression entry in data set [8] (MCF-7 cells) and in data set [8] (MDA cells) was “downregulated” each time. Besides, the “ceramide levels in tumor xenografts (ceramide positive cells counted)” value in data set [9] is on record as 9.6±2.4.
